Test results taken from ChEMBL document CHEMBL1201861, “Genomics of Drug Sensitity in Cancer screening data, Wellcome Trust Sanger Institute”.

Tests used:
Experiment in all cases: cells
HEL = type: functional, cell-based, Homo sapiens; settings: Homo sapiens, HEL;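 note: growth inhibition of HEL cells, read out with a cell viability assay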
Description: SANGER: Inhibition of human HEL cell growth in a cell viability assay.

NCI-H441 = type: functional, cell-based; settings: Homo sapiens;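 note: growth inhibition of NCI-H441 cells, read out with a cell viability assay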
Description: SANGER: Inhibition of human NCI-H441 cell growth in a cell viability assay.

KYSE-410 = type: functional, cell-based, Homo sapiens; settings: Homo sapiens, KYSE-410;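 note: growth inhibition of KYSE-410 cells, measured through a cell viability readout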
Description: SANGER: Inhibition of human KYSE-410 cell growth in a cell viability assay.

OVCAR-4 = type: functional, cell-based, Homo sapiens; settings: Homo sapiens, OVCAR-4;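 note: growth inhibition of human OVCAR-4 cells, measured with a cell viability assay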
Description: SANGER: Inhibition of human OVCAR-4 cell growth in a cell viability assay.

A101D = type: functional, cell-based, Homo sapiens; settings: Homo sapiens, A101D;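 note: growth inhibition of the cell line, measured with a viability assay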
Description: SANGER: Inhibition of human A101D cell growth in a cell viability assay.

KARPAS-45 = type: functional, cell-based; settings: Homo sapiens;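 note: inhibition of cell line growth, read out through a viability assay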
Description: SANGER: Inhibition of human KARPAS-45 cell growth in a cell viability assay.

MN-60 = type: functional, cell-based; settings: Homo sapiens;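 note: growth inhibition of the MN-60 cell line, determined with a cell viability assay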
Description: SANGER: Inhibition of human MN-60 cell growth in a cell viability assay.

EFM-19 = type: functional, cell-based, Homo sapiens; settings: Homo sapiens, EFM-19;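 note: growth inhibition of human EFM-19 cells, measured in a cell viability assay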
Description: SANGER: Inhibition of human EFM-19 cell growth in a cell viability assay.

8505C = type: functional, cell-based, Homo sapiens; settings: Homo sapiens, 8505C
Description: SANGER: Inhibition of human 8505C cell growth in a cell viability assay.

SNU-5 = type: functional, cell-based; settings: Homo sapiens;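 note: cell viability readout used to measure growth inhibition in human NCI-SNU-5 cells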
Description: SANGER: Inhibition of human NCI-SNU-5 cell growth in a cell viability assay.

HT-144 = type: functional, cell-based, Homo sapiens; settings: Homo sapiens, HT-144
Description: SANGER: Inhibition of human HT-144 cell growth in a cell viability assay.

MFM-223 = type: functional, cell-based, Homo sapiens; settings: Homo sapiens, MFM-223
Description: SANGER: Inhibition of human MFM-223 cell growth in a cell viability assay.

SW1417 = type: functional, cell-based, Homo sapiens; settings: Homo sapiens, SW1417;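 note: growth inhibition of human SW1417 cells, read out with a cell viability assay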
Description: SANGER: Inhibition of human SW1417 cell growth in a cell viability assay.

MFE-280 = type: functional, cell-based, Homo sapiens; settings: Homo sapiens, MFE-280;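 note: growth inhibition of MFE-280 cells, determined with a cell viability readout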
Description: SANGER: Inhibition of human MFE-280 cell growth in a cell viability assay.

SW837 = type: functional, cell-based, Homo sapiens; settings: Homo sapiens, SW837;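 note: growth inhibition of SW837 cells, determined with a cell viability assay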
Description: SANGER: Inhibition of human SW837 cell growth in a cell viability assay.

ES6 = type: functional, cell-based, Homo sapiens; settings: Homo sapiens, ES6;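 note: growth inhibition of human ES6 cells, read out with a cell viability assay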
Description: SANGER: Inhibition of human ES6 cell growth in a cell viability assay.

ACHN = type: functional, cell-based, Homo sapiens; settings: Homo sapiens, ACHN;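 note: cell viability read-out used to gauge how strongly growth of human ACHN cells is suppressed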
Description: SANGER: Inhibition of human ACHN cell growth in a cell viability assay.

JVM-2 = type: functional, cell-based; settings: Homo sapiens;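 note: growth inhibition of JVM-2 cells determined by a cell viability assay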
Description: SANGER: Inhibition of human JVM-2 cell growth in a cell viability assay.

KYSE-150 cell line = type: functional, cell-based, Homo sapiens; settings: Homo sapiens, KYSE-150;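 note: growth inhibition of human KYSE-150 cells, read out with a cell viability assay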
Description: SANGER: Inhibition of human KYSE-150 cell growth in a cell viability assay.

NCI-H720 = type: functional, cell-based; settings: Homo sapiens;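 note: growth inhibition of human NCI-H720 cells determined by a cell viability assay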
Description: SANGER: Inhibition of human NCI-H720 cell growth in a cell viability assay.

NCI-H446 = type: functional, cell-based; settings: Homo sapiens;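 note: growth inhibition of NCI-H446 cells determined by a cell viability assay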
Description: SANGER: Inhibition of human NCI-H446 cell growth in a cell viability assay.

SK-LU-1 = type: functional, cell-based, Homo sapiens; settings: Homo sapiens, SK-LU-1;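 note: cell viability assay measuring growth inhibition of human SK-LU-1 cells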
Description: SANGER: Inhibition of human SK-LU-1 cell growth in a cell viability assay.

U2OS = type: functional, cell-based, Homo sapiens, U-2-OS; settings: Homo sapiens, U2OS;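 note: growth inhibition of human U-2-OS cells, determined with a cell viability assay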
Description: SANGER: Inhibition of human U-2-OS cell growth in a cell viability assay.

PFSK-1 = type: functional, cell-based, Homo sapiens; settings: Homo sapiens, PFSK-1;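 note: cell viability assay measuring how strongly compounds suppress growth of human PFSK-1 cells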
Description: SANGER: Inhibition of human PFSK-1 cell growth in a cell viability assay.

SAOS-2 = type: functional, cell-based, Homo sapiens; settings: Homo sapiens, SAOS-2;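 note: growth inhibition of human Saos-2 cells determined by a cell viability assay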
Description: SANGER: Inhibition of human Saos-2 cell growth in a cell viability assay.

MZ1-PC = type: functional, cell-based, Homo sapiens; settings: Homo sapiens, MZ1-PC;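 note: cell viability assay measuring growth inhibition of human MZ1-PC cells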
Description: SANGER: Inhibition of human MZ1-PC cell growth in a cell viability assay.

HOP-92 = type: functional, cell-based, Homo sapiens; settings: Homo sapiens, HOP-92;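 note: cell viability readout, with IC50 reflecting inhibition of HOP-92 cell growth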
Description: SANGER: Inhibition of human HOP-92 cell growth in a cell viability assay.

ES4 = type: functional, cell-based, Homo sapiens; settings: Homo sapiens, ES4;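 note: growth inhibition of human ES4 cells, read out by a cell viability assay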
Description: SANGER: Inhibition of human ES4 cell growth in a cell viability assay.

HT = type: functional, cell-based; settings: Homo sapiens
Description: SANGER: Inhibition of human HT cell growth in a cell viability assay.

BT-20 = type: functional, cell-based, Homo sapiens; settings: Homo sapiens, BT-20;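 note: cell viability assay measuring suppression of growth in human BT-20 cells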
Description: SANGER: Inhibition of human BT-20 cell growth in a cell viability assay.

SW626 = type: functional, cell-based, Homo sapiens; settings: Homo sapiens, SW626;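 note: growth inhibition of SW626 cells, measured with a cell viability assay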
Description: SANGER: Inhibition of human SW626 cell growth in a cell viability assay.

IA-LM = type: functional, cell-based, Homo sapiens; settings: Homo sapiens, IA-LM;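 note: cell viability assay measuring growth inhibition of human IA-LM cells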
Description: SANGER: Inhibition of human IA-LM cell growth in a cell viability assay.

NCI-H1623 = type: functional, cell-based, Homo sapiens; settings: Homo sapiens, NCI-H1623;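 note: cell viability assay used as the read-out for growth inhibition of NCI-H1623 cells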
Description: SANGER: Inhibition of human NCI-H1623 cell growth in a cell viability assay.

GI-1 = type: functional, cell-based, Homo sapiens; settings: Homo sapiens, GI-1;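 note: growth inhibition of human GI-1 cells, measured with a cell viability readout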
Description: SANGER: Inhibition of human GI-1 cell growth in a cell viability assay.

NCI-H1650 = type: functional, cell-based, Homo sapiens; settings: Homo sapiens, NCI-H1650;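 note: growth inhibition of human NCI-H1650 cells measured by a cell viability assay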
Description: SANGER: Inhibition of human NCI-H1650 cell growth in a cell viability assay.

LCLC-97TM1 = type: functional, cell-based, Homo sapiens; settings: Homo sapiens, LCLC-97TM1;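 note: cell viability assay measuring growth inhibition of human LCLC-97TM1 cells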
Description: SANGER: Inhibition of human LCLC-97TM1 cell growth in a cell viability assay.

NCI-H2342 = type: functional, cell-based; settings: Homo sapiens;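 note: growth inhibition of the cancer cell line, determined with a cell viability assay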
Description: SANGER: Inhibition of human NCI-H2342 cell growth in a cell viability assay.

NMC-G1 = type: functional, cell-based, Homo sapiens; settings: Homo sapiens, NMC-G1;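 note: growth inhibition of the NMC-G1 cell line, measured with a cell viability read-out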
Description: SANGER: Inhibition of human NMC-G1 cell growth in a cell viability assay.

CTV-1 = type: functional, cell-based; settings: Homo sapiens;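 note: growth inhibition of the cell line, read out with a cell viability assay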
Description: SANGER: Inhibition of human CTV-1 cell growth in a cell viability assay.

HSC-2 = type: functional, cell-based, Homo sapiens; settings: Homo sapiens, HSC-2;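 note: growth inhibition of human HSC-2 cells, read out by a cell viability assay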
Description: SANGER: Inhibition of human HSC-2 cell growth in a cell viability assay.

LS-411N = type: functional, cell-based, Homo sapiens; settings: Homo sapiens, LS-411N
NCI-H1648 = type: functional, cell-based, Homo sapiens; settings: Homo sapiens, NCI-H1648;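 note: cell viability assay measuring inhibition of NCI-H1648 cell growth, from the Sanger screening data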
Description: SANGER: Inhibition of human NCI-H1648 cell growth in a cell viability assay.

8-MG-BA = type: functional, cell-based, Homo sapiens; settings: Homo sapiens, 8-MG-BA;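 note: growth inhibition of 8-MG-BA cells, read out with a cell viability assay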
Description: SANGER: Inhibition of human 8-MG-BA cell growth in a cell viability assay.

DOHH-2 = type: functional, cell-based; settings: Homo sapiens;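 note: growth inhibition of human DOHH-2 cells, read out with a cell viability assay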
Description: SANGER: Inhibition of human DOHH-2 cell growth in a cell viability assay.

JEG-3 = type: functional, cell-based, Homo sapiens; settings: Homo sapiens, JEG-3;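 note: growth inhibition of human JEG-3 cells, read out with a cell viability assay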
Description: SANGER: Inhibition of human JEG-3 cell growth in a cell viability assay.

LB2518-MEL = type: functional, cell-based, Homo sapiens; settings: Homo sapiens, LB2518-MEL;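 note: growth inhibition of human LB2518-MEL cells, measured with a cell viability assay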
Description: SANGER: Inhibition of human LB2518-MEL cell growth in a cell viability assay.

SBC-1 = type: functional, cell-based; settings: Homo sapiens;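 note: cell viability assay measuring growth inhibition of the SBC-1 cell line, IC50 being the concentration that halves growth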
Description: SANGER: Inhibition of human SBC-1 cell growth in a cell viability assay.

DB = type: functional, cell-based; settings: Homo sapiens
Description: SANGER: Inhibition of human DB cell growth in a cell viability assay.

SK-MEL-30 = type: functional, cell-based; settings: Homo sapiens;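 note: growth inhibition of SK-MEL-30 cells, determined with a cell viability assay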
Description: SANGER: Inhibition of human SK-MEL-30 cell growth in a cell viability assay.

SNU-387 = type: functional, cell-based, Homo sapiens; settings: Homo sapiens, SNU-387
Description: SANGER: Inhibition of human SNU-387 cell growth in a cell viability assay.

HCC1569 = type: functional, cell-based, Homo sapiens; settings: Homo sapiens, HCC1569;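 note: growth inhibition of human HCC1569 cells, read out with a cell viability assay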
Description: SANGER: Inhibition of human HCC1569 cell growth in a cell viability assay.

VM-CUB-1 = type: functional, cell-based; settings: Homo sapiens;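 note: cell viability assay measuring growth inhibition of the human VM-CUB-1 cell line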
Description: SANGER: Inhibition of human VM-CUB-1 cell growth in a cell viability assay.

KURAMOCHI = type: functional, cell-based; settings: Homo sapiens;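 note: growth inhibition of KURAMOCHI cells, read out with a cell viability assay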
Description: SANGER: Inhibition of human KURAMOCHI cell growth in a cell viability assay.

Measured: IC50

CC(=O)O[C@@H]1[C@@H](OC(C)=O)[C@@H](O)[C@H](Oc2c(-c3ccc(O)cc3)oc3cc(O)cc(O)c3c2=O)O[C@H]1C
> 10 µM: HEL | NCI-H441 | KYSE-410 | OVCAR-4 | A101D | KARPAS-45 | MN-60 | EFM-19 | 8505C | SNU-5 | HT-144 | MFM-223 | SW1417 | MFE-280 | SW837 | ES6 | ACHN | JVM-2 | KYSE-150 cell line | NCI-H720 | NCI-H446 | SK-LU-1 | U2OS | PFSK-1 | SAOS-2 | MZ1-PC | HOP-92 | ES4 | HT | BT-20 | SW626 | IA-LM | NCI-H1623 | GI-1 | NCI-H1650 | LCLC-97TM1 | NCI-H2342 | NMC-G1 | CTV-1 | HSC-2 | LS-411N | NCI-H1648 | 8-MG-BA | DOHH-2 | JEG-3 | LB2518-MEL | SBC-1 | DB | SK-MEL-30 | SNU-387 | HCC1569 | VM-CUB-1 | KURAMOCHI

COc1cc(F)c(F)c(Nc2ccc(I)cc2F)c1NS(=O)(=O)C1(CC(O)CO)CC1 (stereo unspecified)
2.75 µM: U2OS
2.42 µM: SNU-387
3.35 µM: KYSE-410
3.4 µM: KYSE-150 cell line
1.14 µM: KARPAS-45
0.049 µM: HT-144
2.58 µM: 8505C
0.683 µM: HOP-92
1.78 µM: NCI-H1623
1.34 µM: MZ1-PC
4.96 µM: CTV-1
0.279 µM: SW626 | LCLC-97TM1
0.0775 µM: LB2518-MEL
0.0512 µM: A101D
> 5 µM: HEL | NCI-H441 | OVCAR-4 | MN-60 | EFM-19 | MFM-223 | SW1417 | MFE-280 | SW837 | ES6 | ACHN | JVM-2 | NCI-H720 | NCI-H446 | SK-LU-1 | PFSK-1 | SAOS-2 | ES4 | HT | BT-20 | GI-1 | NCI-H1650 | NCI-H2342 | NMC-G1 | HSC-2 | NCI-H1648 | 8-MG-BA | DOHH-2 | JEG-3 | SBC-1 | DB | SK-MEL-30 | HCC1569 | KURAMOCHI
0.403 µM: LS-411N
4.51 µM: SNU-5
4.19 µM: IA-LM
3.65 µM: VM-CUB-1
